Results reported in patent publication US5126258A (priority 1988, dated 1992).
Entries after “also recorded” stand apart in the source; their conditions may differ. Read-outs that look alike come from different tables or passages of the source. Values belong to the molecule of their own block, whether it stands above or below them. *1 amine or outer side, *2 acyl side, *3 side chain or, on linkers, in order; H or OH if unused. Where a SMILES comes first, the peptide text is derived from it. The star is where a group is joined. Glutaryl = O=C(CCCC(=O)[*:2])[*:1]; pNA = O=[N+]([O-])c1ccc(N*)cc1; Cbz = O=C(OCc1ccccc1)*

How the values were obtained:
[1] = system: monoclonal receptor NPN 43C9; assay: Amide hydrolysis by monoclonal receptor NPN 43C9, kinetics and inhibition; type: biochemical, mouse; details: for Ki / nature of inhibition: substrate Compound 28; for Km: printed figure = km × 10^6; for Vmax: figure = Vmax × 10^9; for kcat: printed figure = kcat × 10^4
Experimental: FIG. 6 is a graph showing a Lineweaver-Burk plot for amide hydrolysis of reactant ligand Compound 28 by monoclonal receptor NPN 43C9 present at 10 uM. Rates were determined as discussed hereinafter. The ordinate is in units of 1/initial velocity (1/v) in units of minutes/moles (M^-1 min) from zero through 10^7. The abscissa is in units of the reciprocal of the concentration of Compound 28 [1/(28)] in micromoles (uM^-1).
FIG. 7 is a graph showing plots of steady-state velocity (V×10^-9M^-1 min) as a function of total NPN 43C9 monoclonal receptor concentration (At ×10^-6 M) in the absence (I=O) and presence (I=44,=88 and =131) of different concentrations of reversible tight-binding inhibitor (Compound 24i). The indicia adjacent to each curve (I=O, I=44, I=88, and I=131) represent the total micromolar (uM) concentrations of that inhibitor. Each data set was obtained at a constant reactant ligand concentration (1600 uM). […] The data obtained were thereafter fit to an equation shown and discussed hereinafter.
FIG. 8 is a graph showing three further Lineweaver-Burk plots for the hydrolysis of Compound 28 by receptor NPN 43C9 present at 8 uM. Initial velocities were calculated as discussed hereinafter, whereas the ordinate and abscissa are as discussed for FIG. 6, albeit the values of the ordinate are from zero to 3×10^7 M^-1 min. In those plots, the uppermost plot ( ) was prepared from data obtained in the presence of 2000 uM Compound 29 as inhibitor, the middle plot ( ) was obtained in the presence of 1000 uM Compound 29 as inhibitor, and the lowest plot ( ) was obtained in the absence of inhibitor.
It was therefore stored at 4 degrees C in buffer containing 150 mM sodium chloride that was removed immediately prior to use by dialysis against 50 mM CHES, 80 uM NaCl at a pH value of 9.0, and at a temperature of 22 degrees C. This receptor was utilized at concentrations of 10 and 8 uM (as an average value determined from a BCA assay and O. D. 280 nm, using a molecular weight of 160,000 daltons for IgG).
Kinetic parameters for hydrolysis of reactant ligand Compound 28 were determined by measuring the initial linear absorbance change at 404 nm, release of p-nitroaniline. Monoclonal receptor concentrations utilized were 10 and 8 uM, as noted previously. Reactions were initiated by admixture of varying aliquots of a 50 or 100 mM stock solution of Compound 28 in DMF, to provide reactant ligand substrate concentrations of 100-1600 uM. Further studies were carried out using a mixed organic solvent containing dimethyl sulfoxide (DMSO) and acetonitrile (CH3 CN) to dissolve the ligand. In those studies, a final concentration of 5 percent (v/v) of organic solvent was utilized with DMSO comprising 0.2-2.4 volume percent of the final concentration and CH3 CN comprising the remainder of the organic solvent.
Transacylation reactions utilizing an amide reactant ligand as substrate have been studied with Compound 28 as the reactant ligand. In these studies, forty-four hybridomas were prepared that secreted forty-four monoclonal receptors that bound to a conjugate of the immunizing hapten and BSA as carrier protein. Of those forty-four receptors, two appeared to catalyze the hydrolysis reaction of Compound 28. One of those two receptors, NPN 43C9, was selected for further study, as is discussed below.
The initial rates of hydrolysis measured as a function of reactant ligand (Compound 28) concentration followed Michaelis-Menten kinetics.
*Parameters in the upper horizontal row were obtained in the presence of
DMF as a Compound 28solubilizing solvent, whereas parameters in the lower
horizontal row were detained in the presence of DMSO/CH3 CN as
Compound 28solubilizing solvent.
To establish the specificity of monoclonal receptor NPN 43C9, the rates of hydrolysis of potential reactant ligands modified in their acyl or aniline portions were studied. […]

[2] = system: monoclonal receptor P3 6D4; assay: Stoichiometric transacylation reaction of monoclonal receptor P3 6D4 with coumarin ester Compound 5 (fluorescence) and its inhibition/inactivation; type: biochemical, mouse
Experimental: A Perkin-Elmer LS-5 fluorescence spectrometer was operated at a fixed wavelength, using 355 nanometers (nm) for excitation and measuring the emission at 455 nm. A stock solution of the coumarin ester 5 was prepared in dioxane and was diluted to the desired concentrations in Tris-HCl (50 mM, pH 7) or sodium phosphate (50 mM, pH 4-9).
Reactions were run at 23 degrees C and were initiated by the addition of an aliquot of antibody solution (1 mg/ml) to substrate solutions to provide a final protein concentration of 100 nM. Final fluorescence values were determined by hydrolysis of the substrate with pig liver esterase. The observed reaction rate was corrected for spontaneous hydrolysis. Reaction kinetics were studied by measuring initial rates under pseudo-first order conditions. Active protein concentration was extrapolated from fluorescence values at the end of the reaction. The kinetic parameters were obtained by fitting the data to a hyperbolic curve and from double reciprocal plots. Inhibition constants were determined from the Lineweaver-Burk plot data with at least five inhibitor concentrations. All the data were studied by a least squares analysis.
Antibody preparations were inactivated without introducing fluorescent products by the addition of the activated ester (Compound 8) in dioxane to a solution of the IgG (5 mg/ml) in Tris-HCl (50 mM, pH 6.5) at a ratio of 5 moles of the ester (Compound 8) per mole IgG.
Protein modification was performed in an analogous manner, by the addition of a dioxane solution of the reagent at a known concentration to the antibody. The solution was incubated for 30 minutes before filtration through Sephadex G-25. The activity remaining was compared to control samples. Aliquots of IgG (5 mg/ml) inactivated with the ester (Compound 8) were diluted with four volumes of phosphate buffer (50 mM, pH 4-9, at intervals of 1 pH unit). Any pH change was recorded, and the sample was stored at 4 degrees C for 24 hours.
Initially, the ester was used at a concentration that was about four-fold greater than that of the protein, and the mixture was incubated at pH 7.2 for 10 minutes. Any change in fluorescence above background was noted.
The termination of the reaction is noted by the return of the rate of fluorescence increase to the background level.

[3] = DMF as Compound 28-solubilizing solvent
[4] = DMSO/CH3CN as Compound 28-solubilizing solvent

substrate acceptance by NPN 43C9 [1]: non-substrates
Molecule: O=C(O)CCCC(=O)Nc1ccc(CC(=O)Nc2ccccc2[N+](=O)[O-])cc1

substrate acceptance by NPN 43C9 [1]: catalytically hydrolyzed
Molecule: O=C(O)CCCC(=O)Nc1ccc(CC(=O)Oc2ccc([N+](=O)[O-])cc2)cc1

substrate acceptance by NPN 43C9 [1]: not reactant ligand substrates
Molecule: N=C(N)NCCCC(NC(=O)c1ccccc1)C(=O)Nc1ccc([N+](=O)[O-])cc1 (racemic) [reference compound]

Molecule: O=C(Cc1ccc(NC(=O)C(F)(F)F)cc1)ON1C(=O)CCC1=O [Compound 6]
inactivation of receptor [2]: specifically combine with the antibodies to produce an inactive product

calculated maximum number of enzyme binding sites ([1]; detected with inhibitor Compound 24i): 5.1±0.9
Ki ([1]; infinite reactant ligand concentration, inhibitor binding to receptor in a complex, read-out: inhibition constant kii): 2.5 µM
Ki ([1]; low substrate concentration, inhibitor binding to free receptor, read-out: inhibition constant kis): 10 µM
Molecule: CC(=O)Nc1ccc(CP(=O)(O)Nc2ccc([N+](=O)[O-])cc2)cc1 [Compound 24i]
nature of inhibition [1]: Tight binding inhibition; also recorded: mixed inhibitor

rate acceleration / rate enhancement relative to uncatalyzed reaction [1]: 10^5
substrate acceptance by NPN 43C9 [1]: substrate
kcat/kuncat [1, 3]: 1.5 × 10^5
Km ([1]; DMF as Compound 28-solubilizing solvent, pH 9.0): 370 µM
Vmax [1, 3]: 8.3 nM/s
kcat [1, 3]: 0.00083 s⁻¹
kcat/kuncat [1, 4]: 2.5 × 10^5
Vmax [1, 4]: 7 nM/s
kcat [1, 4]: 0.00133 s⁻¹
Km [1, 4]: 562 µM
available transition state binding energy ΔΔG ([1]; difference between binding of inhibitor (Ki) and Compound 28 (Km)): -2.2 kcal/mol
Molecule: O=C(O)CCCC(=O)Nc1ccc(CC(=O)Nc2ccc([N+](=O)[O-])cc2)cc1 [Compound 28]

substrate acceptance by NPN 43C9 [1]: lack of receptor-assisted hydrolysis
substrate acceptance by NPN 43C9 ([1]; listed as Compound 28 with m-nitroaniline for p-nitroaniline): non-substrates
nature of inhibition [1]: inhibitor
Molecule: O=C(O)CCCC(=O)Nc1ccc(CC(=O)Nc2cccc([N+](=O)[O-])c2)cc1 [Compound 29]

Molecule: O=C(O)CN(CCN(CC(=O)O)CC(=O)O)CC(=O)O [EDTA, reference compound]
effect of additive on antibody-enhanced esterolysis of Compound 5 [2]: failure of added EDTA to affect the reaction

substrate acceptance by NPN 43C9 [1]: not reactant ligand substrates
Molecule: CC(C)C[C@H](N)C(=O)Nc1ccc([N+](=O)[O-])cc1 [L-leucine p-nitroanilide, reference compound]

substrate acceptance by NPN 43C9 [1]: not reactant ligand substrates
Molecule: NCCCC[C@H](N)C(=O)Nc1ccc([N+](=O)[O-])cc1 [L-lysine p-nitroanilide, reference compound]

substrate acceptance by NPN 43C9 [1]: not reactant ligand substrates
Molecule: O=C(Nc1ccc([N+](=O)[O-])cc1)[C@@H]1CCCN1 [L-proline p-nitroanilide, reference compound]

substrate acceptance by NPN 43C9 [1]: not reactant ligand substrates
Molecule: CC(C)[C@H](N)C(=O)Nc1ccc([N+](=O)[O-])cc1 [L-valine p-nitroanilide, reference compound]

Molecule: CC(C)C[C@H](NC(=O)CNC(=O)CNC(=O)OCc1ccccc1)C(=O)Nc1ccc([N+](=O)[O-])cc1 [N-CBZ-glycyl-glycyl-L-leucine p-nitroanilide, reference compound] (Cbz-Gly-Gly-Leu-pNA)
substrate acceptance by NPN 43C9 [1]: not reactant ligand substrates

substrate acceptance by NPN 43C9 [1]: not reactant ligand substrates
Molecule: N=C(N)NCCC[C@H](NC(=O)OCc1ccccc1)C(=O)Nc1ccc([N+](=O)[O-])cc1 [N-alpha-CBZ-L-arginine p-nitroanilide, reference compound]

substrate acceptance by NPN 43C9 [1]: not reactant ligand substrates
Molecule: O=C(N[C@@H](Cc1ccc(O)cc1)C(=O)Nc1ccc([N+](=O)[O-])cc1)c1ccccc1 [N-benzoyl-L-tryrosine p-nitroanilide, reference compound]

substrate acceptance by NPN 43C9 [1]: not reactant ligand substrates
Molecule: O=C(O)CCCC(=O)N[C@@H](Cc1ccccc1)C(=O)Nc1ccc([N+](=O)[O-])cc1 [N-glutaryl-L-phenylalanine p-nitroanilide, reference compound]

substrate acceptance by NPN 43C9 [1]: not reactant ligand substrates
Molecule: N[C@@H](CSCc1ccccc1)C(=O)Nc1ccc([N+](=O)[O-])cc1 [S-benzyl-L-cysteine p-nitroanilide, reference compound]

substrate acceptance by NPN 43C9 [1]: not reactant ligand substrates
Molecule: CC(=O)N[C@@H](CC(N)=O)C(=O)Nc1ccc([N+](=O)[O-])cc1 [acetyl-L-asparagine p-nitroanilide, reference compound]

Ki ([2]; summary, kinetic parameters at low pH values, read-out: Ki (inhibition of antibody esterolysis)): 7 µM
Molecule: O=C(O)Cc1ccc(NC(=O)C(F)(F)F)cc1 [carboxylate product of ester hydrolysis]

Molecule: CC(C)C[C@H](NC(=O)[C@H](CCC(=O)O)NC(=O)CCCC(=O)O)C(=O)Nc1ccc([N+](=O)[O-])cc1 [glutaryl-glutamyl-L-leucine p-nitroanilide, reference compound] (Glutaryl-Glu-Leu-pNA)
substrate acceptance by NPN 43C9 [1]: not reactant ligand substrates

nature of inhibition [1]: reversible
Molecule: CC(=O)Nc1ccc(CP(=O)(O)Nc2ccc([N+](=O)[O-])cc2)cc1 [inhibitor]

stoichiometric antibody reaction (release of alcohol) [2]: not detected
Molecule: CC(=O)Nc1ccc(CC(=O)Oc2ccc3ccc(=O)oc3c2)cc1 [reference compound]

Molecule: zinc [reference compound]
effect of additive on antibody-enhanced esterolysis of Compound 5 ([2]; up to 100 micromolar added zinc and picolinic acid, EDTA concentration not given): No effect
